From paper PMC11288129, “Diversely evolved xibalbin variants from remipede venom inhibit potassium channels and activate PKA-II and Erk1/2 signaling” (BMC Biology, 2024) come the findings set out here.

This test deals with THP-1 cell adhesion to HMECs. The test is described as follows: Adhesion of THP-1 leukocytes onto TNF-activated endothelial cells. It is filed as cell-based, human. As to conditions: 25 µg/ml. How it is done: Nitric oxide has a complex and diverse role in pain modulation. […] Finally, we analyzed the effects of xibalbins on the leukocyte adhesion to the vascular endothelium, which is a critical step in the inflammatory response of inflamed tissues. Xibalbins were analyzed for their ability to alter the adhesion of human monocytic (THP-1) cells onto a TNF-activated endothelial cell monolayer (Additional File 5: Figure S4). […] All individual values for these experiments are given in Additional File 8: Table S3.
Supplementary file 12915_2024_1955_MOESM5_ESM.jpg: Additional file 5: Figure S4. Effects of xibalbins on cytotoxicity in RAW264.7 macrophages and adhesion of leukocytes onto the vascular endothelium. (i) For the viability assay, RAW264.7 cells were treated with 25 μg/ml concentrations of xibalbins for 24 h. Cells were incubated with WST-8 and the formed formazan was detected by absorbance measurements. (ii) For the proliferation assay, HMEC-1 cells were grown in low density and treated after 24 h with the indicated peptide for 72 h. Cells were stained with crystal violet solution. The amount of DNA-bound crystal violet was detected by absorbance measurements. […] The adhesion of leukocytes onto endothelial cells was quantified by fluorescence measurements using a Tecan Infinite F200 Pro microplate reader (Tecan, Männedorf, Switzerland) (excitation: 485 nm, emission: 535 nm). […]

Positions of bridges follow the written chain, without caps; N, C: chain ends. No end group written: not given here.

With “KRSCIRRFGRCDHRPNDCCYNSSCRCNLWGSNCRCQRMGLFQKWGK (disulfide 4-19, 11-24, 18-35, 26-33) [xib13]”, the “Prevention of Leukocyte Adh. on HMEC-1” value amounted to 106.6.
